Reference: patent US20220096515A1, “Methods and Formulations for Preventing Neurological or Psychiatric Disorders” (Huntington Medical Research Institutes, priority 2020, published 2022)

Tests used:
[1] = test system: cerebral cortex of Gabrb3^ECKO mice; assay: In vivo multiphoton laser-scanning microscopy of cortical microvasculature; set-up: species or system mouse
Experimental: In vivo imaging of brain microvasculature by multiphoton laser-scanning microscopy: In vivo imaging of the brain vasculature in cranial window bearing mice was performed as described previously. Briefly, a cranial window was implanted by removing circular area of skull and dura. Then, the window was sealed with a 7 mm cover glass glued to the bone. For the measurement of red blood cell (RBC) velocity and blood vessel diameter, we used multiphoton laser-scanning microscopy (MPLSM). To avoid potential tissue/vessel alteration caused by the window implantation procedure, we performed imaging at least 10 days after cranial window implantation. For imaging, mice were anesthetized with ketamine/xylazine, then tetramethylrhodamine (TAMRA)-dextran (MW 500,000) was administrated through retro-orbital injection. Using TAMRA-dextran contrast enhanced angiography, region of interest is first identified. Since the intravenously injected dye labels only the blood plasma, RBCs appear as dark patches moving within the vessel lumen. Centerline RBC velocity was measured by repetitively scanning a line along the central axis of a single blood vessel (x-t) and enabling the tracking of the motion of these dark patches. The space-time image produced by the line-scan contained diagonal dark streaks formed by moving RBCs, with a slope that was inversely proportional to the centerline RBC velocity. This space-time image was then computationally processed using Matlab and Python to extract the gradient of each streak, corresponding to the RBC velocity. Briefly, diagonal filters of varying gradients were tested for each streak until the gradient that fit best was found. […] The blood flow rate was determined through the following formula: […]
Therefore, vessel diameters, red blood cell (RBC) velocity, and blood flow were evaluated in the cerebral cortex of saline-treated Gabrb3^fl/fl mice, saline-treated Gabrb3^ECKO mice, and NAD^+-treated Gabrb3^ECKO mice (FIGS. 14A-14F) using multiphoton laser-scanning microscopy (MPLSM) and a sophisticated cranial window model. […]

[2] = test system: periventricular endothelial cells isolated from E15 wildtype (CD1) forebrain; assay: Tube formation under normal culture conditions (no Matrigel); assay type: cell-based, mouse; conditions: absence of Matrigel
Experimental: Primary culture of endothelial cells and endothelial cell staining: Embryonic brains were dissected under a stereo-microscope, after the NAD^+ treatment paradigm and the telencephalon was removed. Pial membranes were peeled off. Telencephalon without pial membranes from the periventricular region was pooled. Purity of endothelial cell cultures was established with endothelial cell markers and determined to be one hundred percent. Isolation and culture of endothelial cells were performed according to published methodology. Periventricular endothelial cells were prepared from CD1 (wild type), saline-treated Gabrb3^fl/fl, saline-treated Gabrb3^ECKO, and NAD^+-treated Gabrb3^ECKO embryos. Endothelial cells were labeled with anti-biotinylated isolectinB4 (1:100, Sigma), anti-GABA (1:400, Sigma), anti-DAXX (1:100, Santa Cruz Biotechnology) and anti-P2X4 (1:100, Abclonal) followed by secondary detection with AlexaFluor conjugates (Invitrogen). DAPI (Invitrogen) was used to label nuclei. Images were taken on an FSX100 microscope (Olympus). 1 million cells were examined for each immunohistochemistry condition.
In one experiment, periventricular endothelial cells were isolated from E15 wildtype (CD1) forebrain and tested the effect of NAD^+ addition in vitro. […]

Gabrb3^ECKO mice [3] = assay: Three-chamber social communication test; assay type: in vivo, mouse
Experimental: (§1) Behavioral Experiments: Mice were housed in our animal facility with a 12-hour light cycle with ad libitum access to food and water. Offspring stayed with their mothers until weaning at PND 21 after which males and females were separated. Before all behavioral testing, mice were acclimated to the testing room for 1 hour. Behavioral assays were performed according to established protocols referenced here: self-grooming, light-dark box, tail suspension test, Y-maze, open field locomotion activity, three chamber social interaction test and nest building with nestlets and with shredded paper. Both males and females were used for all behavioral assays. Experimenters scoring behaviors were blinded to the genotypes and treatment. Sample sizes for each assay are noted in figure legends.
This is indicative of rescue of social motivation, memory and novelty exploration in NAD^+-treated Gabrb3^ECKO mice (FIG. 14L).

Gabrb3^ECKO mice [4] = assay: Y maze spontaneous alternation test; assay type: in vivo, mouse; conditions: vs saline-treated Gabrb3^ECKO mice
Experimental: as §1
Anxiety was next assessed with the classic light-dark transition test which triggers a struggle between the desires to explore a novel environment versus natural aversion of a brightly illuminated open space. […] The Y maze spontaneous alternation test was used to evaluate for spatial learning and memory in the three groups of mice. After introduction to the center of the maze, the mice were given free access to all three arms. […] The total number of arm entries and the sequence of entries are recorded in order to calculate the percentage of alternation. […]

Gabrb3^ECKO mice [5] = assay: Nest building (nestlets and shredded paper); assay type: in vivo, mouse
Experimental: as §1
Therefore, behavioral tests were performed to screen for stress, anxiety, locomotion, cognition, and sociability in saline-treated Gabrb3^fl/fl mice, saline-treated Gabrb3^ECKO mice and NAD^+-treated Gabrb3^ECKO mice. Mice from saline and NAD^+-treated groups were housed individually in cages containing wood chip bedding and two nestlets (pressed cotton) (FIGS. 16A-16D) or more naturalistic material like shredded paper strips (FIGS. 16E-16H). […] This rescue of home cage social behavior was a robust indication of well-being in NAD^+-treated Gabrb3^ECKO mice. […]

[6] = adult, after prenatal treatment

NC(=O)c1ccc[n+]([C@@H]2O[C@H](COP(=O)([O-])OP(=O)(O)OC[C@H]3O[C@@H](n4cnc5c(N)ncnc54)[C@H](O)[C@@H]3O)[C@@H](O)[C@H]2O)c1 [NAD^+]
RBC velocity in capillaries [1, 6]: reversed
diameter of capillaries and collecting venules [1, 6]: morphological alteration was rescued
blood flow in capillaries and collecting venules ([1]; vs saline-treated Gabrb3^ECKO mice): significantly reduced
tube formation [2]: started showing tube formation properties under normal culture conditions
sociability: stranger mouse vs inanimate object (Gabrb3^ECKO mice [3]; sociability phase): interacted with the stranger mouse for a significantly longer duration than with the inanimate object
social novelty: stranger 2 vs familiar stranger 1 (Gabrb3^ECKO mice [3]; social novelty phase): marked preference for stranger 2
percentage alternations (Gabrb3^ECKO mice [4]): significant increase in percentage alternations
nest building ability (Gabrb3^ECKO mice [5]): significant improvement in their nest building ability
